In patent US5763404A, “Methods for using LHRH antagonists with low histamine release” (priority 1995, dated 1998):
Non-standard residues stand in square brackets, D forms with d. Residues, ends and D or L forms follow the SMILES beside them. *: point of attachment. dAla(cis-4-NHCOPyz-cHex) = N[C@H](C[C@H]1CC[C@@H](NC(=O)c2cnccn2)CC1)C(=O)O; dPhe(3,4-Cl2) = N[C@H](Cc1ccc(Cl)c(Cl)c1)C(=O)O; dPhe(4-Cl) = N[C@H](Cc1ccc(Cl)cc1)C(=O)O; d2Nal = N[C@H](Cc1ccc2ccccc2c1)C(=O)O; Lys(iPr) = CC(C)NCCCC[C@H](N)C(=O)O; Orn(iPr) = CC(C)NCCC[C@H](N)C(=O)O; Pyrazinecarbonyl = O=C(c1cnccn1)*; aIle = CC[C@@H](C)[C@H](N)C(=O)O; d3Pal = N[C@H](Cc1cccnc1)C(=O)O; Nicotinoyl = O=C(c1cccnc1)*; Picolinoyl = O=C(c1ccccn1)*; Abu = CC[C@H](N)C(=O)O; Bz = O=C(c1ccccc1)*

System: anaesthesized rats
Assay: wheal test, intradermal injection
Type: in vivo, rat
Design: Wheal (wheal response): unit not given here
Conditions: for Wheal Area / Wheal: 10 ug peptide intradermally; for Wheal: Table I
Description: The antiovulatory activity, AOA, in rats was determined as described by Humphries et al. (12). Antiovulation assays were performed by counting, on estrus, the number of ova shed by 4-day cycling rats after a single sc injection of the LH-RH analogue in corn oil was administered between 12 and 12:30 p.m. on […]. The control rats received 0.3 mL of the vehicle. The wheal test was performed by intradermally injecting 10 ug of peptide in 100 ul of saline into anaesthesized rats, measuring the ideally circular wheal response and calculating the area. The in vitro histamine release test was done as described by Karten et al. (4). A suspension of rat mast cells was added to increasing concentrations of peptide and the mixture was incubated for a few minutes followed by centrifugation to collect the histamine in the supernatant. A PIPES (piperazine-N,N'-bis[2-ethanesulfonic acid]) medium buffered at pH 7.4 containing NaCl 119 mM, KCl 5 mM, PIPES 25 mM, NaOH 40 mM, glucose 5.6 mM, CaCl2 1 mM, and 0.1% bovine serum albumin was used. This was designated as PIPES AC. Peptides were dissolved in double distilled H2 O at a concentration of 2 mg/ml and stored at -20° C. They were thawed just prior to testing, diluted in PIPES AC and prewarmed for five minutes at 37° C. Peptides studied were stable to heating at 56° C. for two hours, and to freezing and thawing.

Wheal Area | Wheal | other results | Structure (SMILES)
116.2 ± 3.7 mm^2 /10 μg |  |  | CC(=O)N[C@H](Cc1ccc(Cl)c(Cl)c1)C(=O)N[C@H](Cc1ccc(Cl)cc1)C(=O)N[C@H](Cc1cccnc1)C(=O)N[C@@H](CO)C(=O)N[C@@H](CCCCNC(=O)c1ccccn1)C(=O)N[C@H](CCCCNC(=O)c1ccccn1)C(=O)N[C@@H](CC(C)C)C(=O)N[C@@H](CCCCNC(C)C)C(=O)N1CCC[C@H]1C(=O)N[C@H](C)C(N)=O [compound 26100] (Ac-[dPhe(3,4-Cl2)][dPhe(4-Cl)][d3Pal]SK(Picolinoyl)[dK](Picolinoyl)L[Lys(iPr)]P[dA]-NH2)
 | 110.2 mm^2 /10 |  | CC(=O)N[C@H](Cc1ccc2ccccc2c1)C(=O)N[C@H](Cc1ccc(Cl)cc1)C(=O)N[C@H](Cc1cccnc1)C(=O)N[C@@H](CO)C(=O)N[C@@H](CCCCNC(=O)c1cnccn1)C(=O)N[C@H](CCCCNC(=O)c1cnccn1)C(=O)N[C@@H](CC(C)C)C(=O)N[C@@H](CCCCNC(C)C)C(=O)N1CCC[C@H]1C(=O)N[C@H](C)C(N)=O [compound 25650] (Ac-[d2Nal][dPhe(4-Cl)][d3Pal]SK(Pyrazinecarbonyl)[dK](Pyrazinecarbonyl)L[Lys(iPr)]P[dA]-NH2)
119.6 ± 6.6 mm^2 /10 μg |  |  | CC(=O)N[C@H](Cc1ccc2ccccc2c1)C(=O)N[C@H](Cc1ccc(Cl)cc1)C(=O)N[C@H](Cc1cccnc1)C(=O)N[C@@H](CO)C(=O)N[C@@H](CCCCNC(=O)c1ccccn1)C(=O)N[C@H](CCCCNC(=O)c1ccccn1)C(=O)N[C@H](C(=O)N[C@@H](CCCNC(C)C)C(=O)N1CCC[C@H]1C(=O)N[C@H](C)C(N)=O)C(C)C [compound 26118] (Ac-[d2Nal][dPhe(4-Cl)][d3Pal]SK(Picolinoyl)[dK](Picolinoyl)V[Orn(iPr)]P[dA]-NH2)
 | 103.9 mm^2 /10 |  | CC(=O)N[C@H](Cc1ccc(Cl)c(Cl)c1)C(=O)N[C@H](Cc1ccc(Cl)cc1)C(=O)N[C@H](Cc1cccnc1)C(=O)N[C@@H](CO)C(=O)N[C@@H](Cc1ccc(O)cc1)C(=O)N[C@H](CCCCNC(=O)c1cccnc1)C(=O)N[C@@H](CC(C)C)C(=O)N[C@@H](CCCCNC(C)C)C(=O)N1CCC[C@H]1C(=O)N[C@H](C)C(N)=O [compound 25338] (Ac-[dPhe(3,4-Cl2)][dPhe(4-Cl)][d3Pal]SY[dK](Nicotinoyl)L[Lys(iPr)]P[dA]-NH2)
101.5 ± 9.3 mm^2 /10 μg |  |  | CC[C@H](NC(=O)[C@@H](CCCCNC(=O)c1ccccn1)NC(=O)[C@H](CCCCNC(=O)c1ccccn1)NC(=O)[C@H](CO)NC(=O)[C@@H](Cc1cccnc1)NC(=O)[C@@H](Cc1ccc(Cl)cc1)NC(=O)[C@@H](Cc1ccc2ccccc2c1)NC(C)=O)C(=O)N[C@@H](CCCNC(C)C)C(=O)N1CCC[C@H]1C(=O)N[C@H](C)C(N)=O [compound 26179] (Ac-[d2Nal][dPhe(4-Cl)][d3Pal]SK(Picolinoyl)[dK](Picolinoyl)[Abu][Orn(iPr)]P[dA]-NH2)
 |  | Wheal (wheal response) (Table XIV and text, unit not given): 97.9±2.9 | CC[C@@H](C)[C@H](NC(=O)[C@@H](CCCCNC(=O)c1ccccn1)NC(=O)[C@H](CCCCNC(=O)c1ccccn1)NC(=O)[C@H](CO)NC(=O)[C@@H](Cc1cccnc1)NC(=O)[C@@H](Cc1ccc(Cl)cc1)NC(=O)[C@@H](Cc1ccc2ccccc2c1)NC(C)=O)C(=O)N[C@@H](CCCCNC(C)C)C(=O)N1CCC[C@H]1C(=O)N[C@H](C)C(N)=O [IBR 25936] (Ac-[d2Nal][dPhe(4-Cl)][d3Pal]SK(Picolinoyl)[dK](Picolinoyl)[aIle][Lys(iPr)]P[dA]-NH2)
 | 169.0 mm^2 /10 |  | CC(=O)N[C@H](Cc1ccc2ccccc2c1)C(=O)N[C@H](Cc1ccc(Cl)cc1)C(=O)N[C@H](Cc1cccnc1)C(=O)N[C@@H](CO)C(=O)N[C@@H](CCCNC(=N)N)C(=O)N[C@H](CCCCNC(=O)c1ccccc1)C(=O)N[C@@H](CC(C)C)C(=O)N[C@@H](CCCCNC(C)C)C(=O)N1CCC[C@H]1C(=O)N[C@H](C)C(N)=O [compound 25385] (Ac-[d2Nal][dPhe(4-Cl)][d3Pal]SR[dK](Bz)L[Lys(iPr)]P[dA]-NH2)
 | 99.0 ± 10.3 mm^2 /10 |  | CC(=O)N[C@H](Cc1ccc2ccccc2c1)C(=O)N[C@H](Cc1ccc(Cl)cc1)C(=O)N[C@H](Cc1cccnc1)C(=O)N[C@@H](CO)C(=O)N[C@@H](CCCNC(=N)N)C(=O)N[C@H](Cc1cccnc1)C(=O)N[C@@H](CC(C)C)C(=O)N[C@@H](CCCCNC(=O)c1cccnc1)C(=O)N1CCC[C@H]1C(=O)N[C@H](C)C(N)=O [compound 24771] (Ac-[d2Nal][dPhe(4-Cl)][d3Pal]SR[d3Pal]LK(Nicotinoyl)P[dA]-NH2)
116.2 ± 5.5 mm^2 /10 μg |  |  | CC(=O)N[C@H](Cc1ccc2ccccc2c1)C(=O)N[C@H](Cc1cccnc1)C(=O)N[C@H](Cc1ccc(Cl)cc1)C(=O)N[C@@H](CO)C(=O)N[C@@H](CCCCNC(=O)c1ccccn1)C(=O)N[C@H](CCCCNC(=O)c1ccccn1)C(=O)N[C@@H](CC(C)C)C(=O)N[C@@H](CCCNC(C)C)C(=O)N1CCC[C@H]1C(=O)N[C@H](C)C(N)=O [compound 26364] (Ac-[d2Nal][d3Pal][dPhe(4-Cl)]SK(Picolinoyl)[dK](Picolinoyl)L[Orn(iPr)]P[dA]-NH2)
103.9 ± 3.7 mm^2 /10 μg |  |  | CC(=O)N[C@H](Cc1ccc2ccccc2c1)C(=O)N[C@H](Cc1ccc(Cl)cc1)C(=O)N[C@H](Cc1cccnc1)C(=O)N[C@@H](CO)C(=O)N[C@@H](CCCCNC(=O)c1ccccn1)C(=O)N[C@H](CCCCNC(=O)c1ccccn1)C(=O)N[C@@H](C)C(=O)N[C@@H](CCCCNC(C)C)C(=O)N1CCC[C@H]1C(=O)N[C@H](C)C(N)=O [compound 26099] (Ac-[d2Nal][dPhe(4-Cl)][d3Pal]SK(Picolinoyl)[dK](Picolinoyl)A[Lys(iPr)]P[dA]-NH2)
129.4 ± 3.3 mm^2 /10 μg |  |  | CC(=O)N[C@H](Cc1ccc2ccccc2c1)C(=O)N[C@H](Cc1ccc(Cl)cc1)C(=O)N[C@H](Cc1cccnc1)C(=O)N[C@@H](CO)C(=O)N[C@@H](Cc1ccc(O)cc1)C(=O)N[C@H](C[C@H]1CC[C@@H](NC(=O)c2cnccn2)CC1)C(=O)N[C@@H](CC(C)C)C(=O)N[C@@H](CCCCNC(C)C)C(=O)N1CCC[C@H]1C(=O)N[C@H](CO)C(N)=O [compound 26365] (Ac-[d2Nal][dPhe(4-Cl)][d3Pal]SY[dAla(cis-4-NHCOPyz-cHex)]L[Lys(iPr)]P[dS]-NH2)
 | 139.9 mm^2 /10 |  | CC(=O)N[C@H](Cc1ccc(Cl)cc1)C(=O)N[C@H](Cc1ccc(Cl)cc1)C(=O)N[C@H](Cc1cccnc1)C(=O)N[C@@H](CO)C(=O)N[C@@H](Cc1ccc(O)cc1)C(=O)N[C@H](CCCCNC(=O)c1cccnc1)C(=O)N[C@@H](CC(C)C)C(=O)N[C@@H](CCCCNC(C)C)C(=O)N1CCC[C@H]1C(=O)N[C@H](C)C(N)=O [compound 25337] (Ac-[dPhe(4-Cl)][dPhe(4-Cl)][d3Pal]SY[dK](Nicotinoyl)L[Lys(iPr)]P[dA]-NH2)
 | 139.7 ± 0 mm^2 /10 |  | CC(=O)N[C@H](Cc1ccc2ccccc2c1)C(=O)N[C@H](Cc1ccc(Cl)cc1)C(=O)N[C@H](Cc1cccnc1)C(=O)N[C@@H](CO)C(=O)N[C@@H](Cc1c[nH]cn1)C(=O)N[C@H](CCCCNC(=O)c1cccnc1)C(=O)N[C@@H](CC(C)C)C(=O)N[C@@H](CCCNC(=N)N)C(=O)N1CCC[C@H]1C(=O)N[C@H](C)C(N)=O [compound 24545] (Ac-[d2Nal][dPhe(4-Cl)][d3Pal]SH[dK](Nicotinoyl)LRP[dA]-NH2)
122.8 ± 5.7 mm^2 /10 μg |  |  | CC(=O)N[C@H](Cc1ccc2ccccc2c1)C(=O)N[C@H](Cc1ccc(Cl)cc1)C(=O)N[C@H](Cc1cccnc1)C(=O)N[C@@H](CO)C(=O)N[C@@H](CCCCNC(=O)c1ccccn1)C(=O)N[C@H](C[C@H]1CC[C@@H](NC(=O)c2cnccn2)CC1)C(=O)N[C@@H](CC(C)C)C(=O)N[C@@H](CCCCNC(C)C)C(=O)N1CCC[C@H]1C(=O)N[C@H](CO)C(N)=O [compound 26348] (Ac-[d2Nal][dPhe(4-Cl)][d3Pal]SK(Picolinoyl)[dAla(cis-4-NHCOPyz-cHex)]L[Lys(iPr)]P[dS]-NH2)
 | 136.0 mm^2 /10 |  | CC(=O)N[C@H](Cc1ccc2ccccc2c1)C(=O)N[C@H](Cc1ccc(Cl)cc1)C(=O)N[C@H](Cc1cccnc1)C(=O)N[C@@H](CO)C(=O)N[C@@H](CCCCNC(=O)c1cccnc1)C(=O)N[C@H](CCCCNC(=O)c1cccnc1)C(=O)N[C@@H](CC(C)C)C(=O)N[C@@H](CCCNC(C)C)C(=O)N1CCC[C@H]1C(=O)N[C@H](C)C(N)=O [compound 24933] (Ac-[d2Nal][dPhe(4-Cl)][d3Pal]SK(Nicotinoyl)[dK](Nicotinoyl)L[Orn(iPr)]P[dA]-NH2)
101.6 ± 2.2 mm^2 /10 μg |  |  | CC(=O)N[C@H](Cc1ccc2ccccc2c1)C(=O)N[C@H](Cc1ccc(Cl)cc1)C(=O)N[C@H](Cc1cccnc1)C(=O)N[C@@H](CO)C(=O)N[C@@H](CCCCNC(=O)c1ccccn1)C(=O)N[C@H](C[C@H]1CC[C@@H](NC(=O)c2cnccn2)CC1)C(=O)N[C@@H](CC(C)C)C(=O)N[C@@H](CCCNC(C)C)C(=O)N1CCC[C@H]1C(=O)N[C@H](C)C(N)=O [IBR 26181] (Ac-[d2Nal][dPhe(4-Cl)][d3Pal]SK(Picolinoyl)[dAla(cis-4-NHCOPyz-cHex)]L[Orn(iPr)]P[dA]-NH2)
